Experimental data taken from US11053204B2, “Pyrimidinyloxy benzene derivatives as herbicides” (FMC Corporation, priority 2015, dated 2021).

Experiments:
Type in all cases: in vivo
[1] = tested on: barnyardgrass (Echinochloa crus-galli); assay: Test C postemergence, plant response rating; conditions: Echinochloa crus-galli, post-emergence
Outline: (§1)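 Both timings shared one formulation, a non-phytotoxic solvent mixture with surfactant, and a greenhouse period of 13 to 15 d. Preemergence used seeded loam/sand or silt loam soil, postemergence used 2 to 18 cm plants; visual ratings ran from 0 (no effect) to 100 (complete control).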

[2] = tested on: ryegrass, Italian (Italian ryegrass, Lolium multiflorum); assay: Test C postemergence, plant response rating; conditions: Lolium multiflorum, post-emergence
Outline: as §1

[3] = tested on: blackgrass (Alopecurus myosuroides); assay: Test C postemergence, plant response rating; conditions: Alopecurus myosuroides, post-emergence
Outline: as §1

[4] = tested on: ragweed (common ragweed, Ambrosia elatior); assay: Test C postemergence, plant response rating; conditions: Ambrosia artemisiifolia, post-emergence
Outline: as §1

[5] = tested on: velvetleaf (Abutilon theophrasti); assay: Test C postemergence, plant response rating; conditions: Abutilon theophrasti, post-emergence
Outline: as §1

[6] = tested on: oat, wild (wild oat Avena fatua); assay: Test C postemergence, plant response rating; conditions: Avena fatua, post-emergence
Outline: as §1

[7] = tested on: lambsquarters (Chenopodium album); assay: Test C postemergence, plant response rating; conditions: Chenopodium album, post-emergence
Outline: as §1

[8] = tested on: wheat (winter wheat, Triticum aestivum); assay: Test C postemergence, plant response rating; conditions: Triticum aestivum, post-emergence
Outline: as §1

[9] = tested on: nutsedge, yellow (yellow nutsedge, Cyperus esculentus); assay: Test C postemergence, plant response rating; conditions: Cyperus, post-emergence
Outline: as §1

[10] = tested on: chickweed (common chickweed, Stellaria media); assay: Test C postemergence, plant response rating; conditions: Stellaria media, post-emergence
Outline: as §1

[11] = tested on: morningglory (Ipomoea coccinea); assay: Test C postemergence, plant response rating; conditions: Ipomoea, post-emergence
Outline: as §1

[12] = tested on: barnyardgrass (Echinochloa crus-galli); assay: Test C preemergence, plant response rating; conditions: Echinochloa crus-galli, pre-emergence, Preemergence
[13] = tested on: pigweed (Amaranthus retroflexus); assay: Test C preemergence, plant response rating; conditions: Preemergence
[14] = 62 g ai/ha, scale 0 to 100 (0 no effect, 100 complete control)
[15] = 125 g ai/ha, scale 0 to 100 (0 no effect, 100 complete control)

CC(CC(F)(F)F)OC(=O)c1c(Br)cccc1Oc1ncc(Cl)cn1 (stereo not shown) [Compound 16, 3,3,3-trifluoro-1-methylpropyl 2-bromo-6-[(5-chloro-2-pyrimidinyl)oxy]benzoate]
0%: pest or weed control at 16 g/ha ([2]; 16 g ai/ha, scale 0 to 100) | pest or weed control at 31 g/ha ([2]; 31 g ai/ha, scale 0 to 100) | pest or weed control at 62 g/ha [2, 14] | pest or weed control at 16 g/ha ([3]; 16 g ai/ha, scale 0 to 100) | pest or weed control at 31 g/ha ([3]; 31 g ai/ha, scale 0 to 100) | pest or weed control at 62 g/ha [3, 14] | pest or weed control at 16 g/ha ([6]; 16 g ai/ha, scale 0 to 100) | plant injury at 16 g/ha ([8]; 16 g ai/ha, scale 0 to 100) | plant injury at 31 g/ha ([8]; 31 g ai/ha, scale 0 to 100) | plant injury at 62 g/ha ([8]; 62 g ai/ha, scale 0 to 100 (0 no effect, 100 complete control), read-out: Wheat plant response rating) | plant injury at 125 g/ha [8, 15] | pest or weed control at 16 g/ha ([9]; 16 g ai/ha, scale 0 to 100) | pest or weed control at 16 g/ha ([12]; 16 g ai/ha, scale 0 to 100)
15%: pest or weed control at 31 g/ha ([12]; 31 g ai/ha, scale 0 to 100)
20%: pest or weed control at 62 g/ha [1, 14] | pest or weed control at 125 g/ha [1, 15] | pest or weed control at 16 g/ha ([4]; 16 g ai/ha, scale 0 to 100) | pest or weed control at 16 g/ha ([5]; 16 g ai/ha, scale 0 to 100) | pest or weed control at 125 g/ha [9, 15] | pest or weed control at 16 g/ha ([10]; 16 g ai/ha, scale 0 to 100) | pest or weed control at 31 g/ha ([10]; 31 g ai/ha, scale 0 to 100)
75%: pest or weed control at 125 g/ha [11, 15] | pest or weed control at 125 g/ha ([12]; 125 g ai/ha, scale of 0 to 100)
95: Plant response rating, Pigweed ([13]; 125 g ai/ha, scale of 0 to 100)
25%: pest or weed control at 31 g/ha ([5]; 31 g ai/ha, scale 0 to 100)
50: Plant response rating, Pigweed ([13]; 62 g ai/ha, scale 0 to 100)
40%: pest or weed control at 125 g/ha [4, 15] | pest or weed control at 16 g/ha ([7]; 16 g ai/ha, scale 0 to 100) | pest or weed control at 62 g/ha [7, 14] | pest or weed control at 62 g/ha [11, 14]
30%: pest or weed control at 62 g/ha ([5]; 62 g ai/ha, scale 0 to 100 (0 no effect, 100 complete control), read-out: Velvetleaf plant response rating) | pest or weed control at 31 g/ha ([11]; 31 g ai/ha, scale 0 to 100) | pest or weed control at 62 g/ha ([12]; 62 g ai/ha, scale of 0 to 100)
50%: pest or weed control at 125 g/ha [5, 15] | pest or weed control at 31 g/ha ([7]; 31 g ai/ha, scale 0 to 100) | pest or weed control at 62 g/ha [10, 14]
10%: pest or weed control at 31 g/ha ([1]; 31 g ai/ha, scale 0 to 100) | pest or weed control at 31 g/ha ([4]; 31 g ai/ha, scale 0 to 100) | pest or weed control at 62 g/ha [4, 14] | pest or weed control at 125 g/ha [6, 15] | pest or weed control at 62 g/ha [9, 14]
5%: pest or weed control at 16 g/ha ([1]; 16 g ai/ha, scale 0 to 100) | pest or weed control at 125 g/ha [2, 15] | pest or weed control at 125 g/ha [3, 15] | pest or weed control at 31 g/ha ([6]; 31 g ai/ha, scale 0 to 100) | pest or weed control at 62 g/ha [6, 14] | pest or weed control at 31 g/ha ([9]; 31 g ai/ha, scale 0 to 100) | pest or weed control at 16 g/ha ([11]; 16 g ai/ha, scale 0 to 100)
0: Plant response rating, Pigweed ([13]; 16 g ai/ha, scale 0 to 100) | Plant response rating, Pigweed ([13]; 31 g ai/ha, scale 0 to 100)
60%: pest or weed control at 125 g/ha [7, 15]
80%: pest or weed control at 125 g/ha [10, 15]
